Assay results reported in the NIST ThermoML archive (doi:10.1021/acs.jced.6b00202).

COC(C)(C)C [2-methoxy-2-methylpropane]
Liquid, Brillouin light scattering
Details | speed of sound [m/s]
343.24 K, 10000 kPa | 941
348.1 K, 5500 kPa | 874.9
348.12 K, 7000 kPa | 890.7
348.16 K, 4000 kPa | 858.5
348.16 K, 8500 kPa | 907.4
348.17 K, 10000 kPa | 915.3
348.22 K, 1000 kPa | 829.7
348.22 K, 2500 kPa | 844.7
353.05 K, 5500 kPa | 858.5
353.1 K, 7000 kPa | 868.9
353.11 K, 10000 kPa | 903.3
353.2 K, 2500 kPa | 825.4
353.22 K, 4000 kPa | 841.4
353.23 K, 8500 kPa | 889.4
353.25 K, 1000 kPa | 800
358.08 K, 7000 kPa | 852.1
358.09 K, 5500 kPa | 835.6
358.14 K, 8500 kPa | 866.9
358.15 K, 1000 kPa | 779.2
358.18 K, 10000 kPa | 883.2
358.19 K, 2500 kPa | 802.1
358.19 K, 4000 kPa | 816.3
363.06 K, 1000 kPa | 761.1
363.09 K, 2500 kPa | 775.4
363.09 K, 5500 kPa | 811.7
363.14 K, 7000 kPa | 833.6
363.18 K, 8500 kPa | 844.2
363.23 K, 4000 kPa | 796.3
363.24 K, 10000 kPa | 863.5
368.06 K, 5500 kPa | 796.6
368.08 K, 10000 kPa | 844.9
368.13 K, 7000 kPa | 813
368.15 K, 1000 kPa | 734.3
368.16 K, 4000 kPa | 777
368.21 K, 8500 kPa | 831.5
368.25 K, 2500 kPa | 754.9
373.07 K, 1000 kPa | 713.9
373.07 K, 10000 kPa | 828.1
373.11 K, 8500 kPa | 811.5
373.12 K, 5500 kPa | 770.2
373.16 K, 4000 kPa | 753.8
373.17 K, 2500 kPa | 733.6
373.24 K, 7000 kPa | 791.5
378.06 K, 4000 kPa | 732.9
378.07 K, 5500 kPa | 751.9
378.07 K, 7000 kPa | 770.5
378.13 K, 2500 kPa | 711.8
378.13 K, 8500 kPa | 791.5
378.22 K, 1000 kPa | 691.3
378.25 K, 10000 kPa | 804
383.07 K, 1000 kPa | 666.2
383.08 K, 4000 kPa | 713
383.12 K, 2500 kPa | 690.6
383.13 K, 7000 kPa | 753.8
383.15 K, 8500 kPa | 769.5
383.18 K, 5500 kPa | 731.2
383.21 K, 10000 kPa | 789.5
388.09 K, 5500 kPa | 711.4
388.16 K, 7000 kPa | 730.1
388.2 K, 4000 kPa | 690

Details | speed of sound [m/s]
348.24 K, Liquid, Brillouin Light Scattering | 797.5
353.11 K, Liquid, Brillouin Light Scattering | 781.5
358.22 K, Liquid, Brillouin Light Scattering | 748.6
363.16 K, Liquid, Brillouin Light Scattering | 727.1
368.17 K, Liquid, Brillouin Light Scattering | 707.1
373.05 K, Liquid, Brillouin Light Scattering | 698.9
378.05 K, Liquid, Brillouin Light Scattering | 668.3
378.1 K, Gas, Brillouin light scattering | 171.6
383.08 K, Liquid, Brillouin Light Scattering | 646.4
388.11 K, Liquid, Brillouin Light Scattering | 627.5
388.2 K, Gas, Brillouin light scattering | 170.9
